Reference: patent US20250206730A1 (AUTOTELIC BIO INC., priority 2022, published 2025)
pIC50: −log10 of the molar value.

Experiments:
TGF-β signaling = assay: Assay for evaluating cellular inhibition of TGF-β signaling, HEK293 (SBE reporter) luciferase reporter; type: cell-based; conditions: Homo sapiens; HEK293 (SBE reporter) stable cells, 0.5% FBS, 2 h pre-treatment, TGF-β1 2 ng/mL 24 h; read-out: IC50 HEK 293 Cell
Procedure: [Example 2] Assay for Evaluating Cellular Inhibition of TGF-β Signaling
4T1 (SBE-luc2P) transient pool that have SBE-luc2P (hygro) expression plasmid or HEK293 (SBE reporter) stable cells (BPS bioscience) were seeded at 6×10^3 cells/well or 2.5×10^4 cells/well in 96-well plate, respectively. 4T1 (SBE-luc2P) transient pool were pre-treated with novel compound synthesized in Example 1 above in 0.2% FBS at approximately 60% confluence at 37° C. in 5% CO2. Also, HEK293 (SBE reporter) stable cells were pre-treated with each test compounds of formula in 0.5% FBS at approximately 80% confluence at 37° C. in 5% CO2. After 2 hours, cells were treated with TGF-β1 (2 ng/mL) for 24 h at 37° C. in 5% CO2. Cell lysates were prepared using Luciferase Assay (Promega) according to the manufacturer's instruction, and luminescence was measured by a plate reader, Biotek Synergy H1 (Vermont, USA).

ALK5 kinase = molecular target: T1, ALK5 kinase (Homo sapiens, UniProt P36897); assay: LanthaScreen Eu Kinase Binding Assay; conditions: Kinase Tracer 178, Eu-anti-GST Antibody, read-out: IC50 Enzyme
T1 sequence (P36897 34-503): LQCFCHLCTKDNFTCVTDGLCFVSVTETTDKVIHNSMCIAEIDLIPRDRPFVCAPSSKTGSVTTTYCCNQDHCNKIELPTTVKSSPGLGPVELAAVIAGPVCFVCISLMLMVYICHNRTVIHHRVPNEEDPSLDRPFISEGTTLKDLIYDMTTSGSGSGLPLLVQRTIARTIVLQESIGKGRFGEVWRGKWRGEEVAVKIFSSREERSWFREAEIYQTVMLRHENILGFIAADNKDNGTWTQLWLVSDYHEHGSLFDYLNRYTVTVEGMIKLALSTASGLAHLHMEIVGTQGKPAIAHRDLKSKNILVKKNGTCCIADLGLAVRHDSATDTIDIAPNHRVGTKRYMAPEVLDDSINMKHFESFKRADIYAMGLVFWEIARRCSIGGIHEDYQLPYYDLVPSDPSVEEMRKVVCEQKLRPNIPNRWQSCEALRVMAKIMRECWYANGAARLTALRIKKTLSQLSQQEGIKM
Procedure, shortened: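 Tracer-displacement TR-FRET: after 30 min RT compound–kinase preincubation, Eu-labelled anti-GST antibody plus Kinase Tracer 178 were incubated 60 min at RT. Binding was read as a lower 665 nm/615 nm emission ratio (excitation 340 nm).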

Structure (SMILES)	pIC50 (TGF-β signaling)	pIC50 (ALK5 kinase)
O=C(O)c1ccc(Nc2cc(Oc3oc(C4CC4)nc3-c3ccccc3)ccn2)nc1 [A-293, 6-((4-((2-Cyclopropyl-4-phenyloxazol-5-yl)oxy)pyridin-2-yl)amino)nicotinic acid]	> 7.00	> 7.00
NC(=O)c1ccc(Nc2cc(Oc3oc(C4CC4)nc3-c3ccccc3)ccn2)nc1 [A-294, 6-((4-((2-Cyclopropyl-4-phenyloxazol-5-yl)oxy)pyridin-2-yl)amino)nicotinamide]	> 7.00	> 7.00
Cc1cccc(-c2nc(C3CC3)sc2Oc2ccnc(Nc3cccc(C(N)=O)n3)c2)n1 [A-278, 6-((4-((2-Cyclopropyl-4-(6-methylpyridin-2-yl)thiazol-5-yl)oxy)pyridin-2-yl)amino)picolinamide]	> 7.00	> 7.00
O=C(O)c1cccc(Nc2cc(Oc3oc(C4CC4)nc3-c3ccccc3)ccn2)c1 [A-300, 3-((4-((2-Cyclopropyl-4-phenyloxazol-5-yl)oxy)pyridin-2-yl)amino)benzoic acid]	> 7.00	
CCc1nc(-c2ccccc2)c(Oc2ccnc(Nc3ccc(N4CCC(N)C4)cn3)c2)s1 (centres unmarked) [A-204, 5-(3-Aminopyrrolidin-1-yl)-N-(4-((2-ethyl-4-phenylthiazol-5-yl)oxy)pyridin-2-yl)pyridin-2-amine]	> 7.00	
CCc1nc(-c2cccc(C)n2)c(Oc2ccnc(Nc3ccc(C(=O)OCC4CC4)cn3)c2)s1 [A-270]	> 7.00	> 7.00
Cc1cccc(-c2nc(C3CC3)sc2Oc2ccnc(Nc3cccc(S(N)(=O)=O)c3)c2)n1 [A-277, 3-((4-((2-Cyclopropyl-4-(6-methylpyridin-2-yl)thiazol-5-yl)oxy)pyridin-2-yl)amino)benzenesulfonamide]	> 7.00	> 7.00

Other lines, results leading:

pIC50 (TGF-β signaling)	pIC50 (ALK5 kinase)	Structure (SMILES)
> 7.00	> 7.00	CCc1nc(-c2cccc(C)n2)c(Oc2ccnc(Nc3ccc(C(=O)NCCN(C)C)cn3)c2)s1 [A-269, N-(2-(Dimethylamino)ethyl)-6-((4-((2-ethyl-4-(6-methylpyridin-2-yl)thiazol-5-yl)oxy)pyridin-2-yl)amino)nicotinamide]
> 7.00	> 7.00	CCc1nc(-c2cccc(C)n2)c(Oc2ccnc(Nc3ccnc(C(N)=O)c3)c2)s1 [A-264, 4-((4-((2-Ethyl-4-(6-methylpyridin-2-yl)thiazol-5-yl)oxy)pyridin-2-yl)amino)picolinamide]
> 7.00	> 7.00	CCc1nc(-c2cccc(C)n2)c(Oc2ccnc(Nc3ccc(C(=O)OCCN(C)C)cn3)c2)s1 [A-271, 2-(Dimethylamino)ethyl 6-((4-((2-ethyl-4-(6-methylpyridin-2-yl)thiazol-5-yl)oxy)pyridin-2-yl)amino)nicotinate]
> 7.00	> 7.00	CNC(=O)c1cccc(Nc2cc(Oc3sc(C4CC4)nc3-c3cccc(C)n3)ccn2)n1 [A-279, 6-((4-((2-Cyclopropyl-4-(6-methylpyridin-2-yl)thiazol-5-yl)oxy)pyridin-2-yl)amino)-N-methylpicolinamide]
> 7.00		CCc1nc(-c2ccccc2)c(Oc2ccnc(Nc3cccc(C(N)=O)c3)n2)s1 [A-243, 3-((4-((2-Ethyl-4-phenylthiazol-5-yl)oxy)pyrimidin-2-yl)amino)benzamide]
> 7.00	> 7.00	Cc1cccc(-c2nc(C3CC3)sc2Oc2ccnc(Nc3cc(C(N)=O)ccn3)c2)n1 [A-276, 2-((4-((2-Cyclopropyl-4-(6-methylpyridin-2-yl)thiazol-5-yl)oxy)pyridin-2-yl)amino)isonicotinamide]
> 7.00	> 7.00	CNC(=O)c1ccnc(Nc2cc(Oc3sc(C4CC4)nc3-c3cccc(C)n3)ccn2)c1 [A-280, 2-((4-((2-Cyclopropyl-4-(6-methylpyridin-2-yl)thiazol-5-yl)oxy)pyridin-2-yl)amino)-N-methylisonicotinamide]
> 7.00		CCc1nc(-c2ccccc2)c(Oc2ccnc(Nc3ccc(NCCN4CCN(C(C)C)CC4)cc3)c2)s1 [A-205, N^1-(4-((2-Ethyl-4-phenylthiazol-5-yl)oxy)pyridin-2-yl)-N^4-(2-(4-isopropylpiperazin-1-yl)ethyl)benzene-1,4-diamine]
> 7.00	> 7.00	O=C(O)c1ccc(Nc2cc(Oc3oc(C4CC4)nc3-c3ccccc3)ccn2)cc1 [A-295, 4-((4-((2-Cyclopropyl-4-phenyloxazol-5-yl)oxy)pyridin-2-yl)amino)benzoic acid]
> 7.00		CCc1nc(-c2ccccc2)c(Oc2ccnc(Nc3ccc(NCCN4CCN(CC)CC4)cc3)c2)s1 [A-207, N^1-(4-((2-Ethyl-4-phenylthiazol-5-yl)oxy)pyridin-2-yl)-N^4-(2-(4-ethylpiperazin-1-yl)ethyl)benzene-1,4-diamine]
